Laboratory results from patent US10960020B2, “Modulation of PCSK9 and LDLR through DRP1 inhibition” (THE BRIGHAM AND WOMEN'S HOSPITAL, INC., priority 2016, dated 2021).

Test system: PCSK9 secretion in HepG2 cells
Assay: Secreted PCSK9 ELISA, HepG2 media
Assay type: cell-based, human
Conditions: HepG2, 24 hours; chloroquine 50 μmol/L, Mdivi-1 50 μmol/L, MG132 0.3 μmol/L
Experimental: Pitavastatin and T0901317 were synthesized and provided by Kowa Company, Ltd. (Tokyo, Japan), and treated at a dose of 1 μM in all experiments. […] Mdivi-1 in DMSO vehicle was added at a concentration of 50 μM in all experiments. Mdivi-1 in DMSO vehicle was added to cell culture media in a 50 mL tube, vortexed hard for several minutes and then incubated at 37° C. prior to adding to cells to ensure the compound was fully solubilized.
HepG2 cells were obtained from ATCC (Manassas, Va.), and cultured in EMEM with L-glutamine (ATCC) medium, 1% pen/strep, with and without 10% FBS (Thermo Fisher Scientific, Waltham, Mass.) in 12-well plates (Corning, Durham, N.C.). HepG2 cells were plated at a density of 60-70% prior to treatment to avoid clumping. […] Cell viability was assessed by Trypan Blue exclusion using live/dead cell counting on a Countess™ II LT automated cell counter (Thermo Fisher Scientific).

## CCN(CC)CCCC(C)Nc1ccnc2cc(Cl)ccc12 (stereo not shown) [chloroquine]
  PCSK9 secretion by ELISA (in words): increased
